According to patent EP0073845B1, “Imidazopyridine-spiro-piperidine compounds” (Yoshitomi Pharmaceutical Industries, Ltd., priority 1981, dated 1983):

What was measured:
[1] = test system: apomorphine-induced vomiting; assay: Effect on apomorphine-induced vomiting; format: in vivo; conditions: Canis lupus familiaris, po, 2 hours prior to apomorphine hydrochloride (0.1 mg/kg, s.c.); incidence of vomiting checked for 2 hours; beagle dogs
Procedure: (1) Effect on apomorphine-induced vomiting
The test was performed according to the method described by M. Nakanishi et al: in "Arzneimittel-Forschung", vol. 21, 391 ff (1971).
Groups of 5-10 beagle dogs of both sexes each were used. The test compound was administered orally 2 hours prior to the treatment with apomorphine hydrochloride (0.1 mg/kg, s.c.). The incidence of vomiting was checked for 2 hours, and the ED50 (50% effective dose) was determined.

Cataleptogenic activity = conditions: rat, in vivo, ip; Wistar female rats; from total points of the maximum appearance of catatonia
Procedure: (2) Cataleptogenic Activity
The test was performed according to the method described by W. Wirth et al. in "Archives Internationales de Pharmacodynamie et de Therapie", vol, 115, 1 ff (1958).
Groups of 5 Wistar female rats each were used. […] The ED50 was determined from total points of the maximum appearance of catatonia.

**Q.** Which ED50 [1] does the source give for `Cl.Cl.O.O=C1NC2CCCCN2C12CCN(CCCN1c3ccccc3CCc3ccccc31)CC2` (centres unmarked) [A, 1'-[3-(10,11-dihydro-5H-dibenz[b,f]azepin-5-yl)propyl]-1,2,3,5,6,7,8,8a-octahydro-2-oxo-imidazo[1,2-a]pyridine-3-spiro-4'-piperidine dihydrochloride monohydrate] here?
**A.** 2.5 mg/kg

**Q.** What about the ED50 (Cataleptogenic activity) of the same molecule?
**A.** > 50 mg/kg

**Q.** Which results are given for `Cl.Cl.O.O=C1NC2CCCCN2C12CCN(CCCN1c3ccccc3CCc3ccc(Cl)cc31)CC2` (centres unmarked) [B, 1'-[3-(3-chloro-10,11-dihydro-5H-dibenz[b,f]azepin-5-yl)propyl]-1,2,3,5,6,7,8,8a-octahydro-2-oxo-imidazo[1,2-a]pyridine-3-spiro-4'-piperidine dihydrochloride monohydrate]?
**A.** ED50 [1]: 0.5 mg/kg; ED50 (Cataleptogenic activity): > 50 mg/kg

**Q.** Which ED50 [1] does the source give for `Cl.Cl.O.O=C1N=C2CCCCN2C12CCN(CCCN1c3ccccc3CCc3ccccc31)CC2` [C, 1'-[3-(10,11-dihydro-5H-dibenz[b,f]azepin-5-yl)propyl]-2,3,5,6,7,8-hexahydro-2-oxo-imidazo[1,2-a]pyridine-3-spiro-4'-piperidine dihydrochloride monohydrate] here?
**A.** 2 mg/kg

**Q.** And the ED50 (Cataleptogenic activity)?
**A.** > 50 mg/kg

**Q.** Which ED50 [1] does the source give for `CN(C)CCCN1c2ccccc2Sc2ccc(Cl)cc21` [Chlorpromazine, reference compound] here?
**A.** 5.1 mg/kg

**Q.** What about the ED50 (Cataleptogenic activity) of the same molecule?
**A.** 12 mg/kg
